The text below walks through data of patent US9018208B2, “Heterocycles as potassium channel modulators” (Icagen Inc., priority 2007, dated 2015).

For this assay, the system named is SH-SY5Y M-currents (KCNQ2, KCNQ3 and KCNQ5). The assay is described as follows: SH-SY5Y native cell line FLIPR assay (voltage-sensitive dye DiBAC). The class given is cell-based, mouse neuroblastoma, rat glioma hybrid cell line. Particulars: FLIPR assay, SH-SY5Y native cell line; Table 2; read-out: SH-SY5Y EC50. In short, it runs like this:
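Response is peak DiBAC fluorescence change, normalised to the maximum from a positive control agent, sampled every 30 s over 25 min. Before compound addition, SH-SY5Y cells differentiated with PGE1 plus isomethylbutylxanthine were dye-loaded for 1 h in EBSS with […] DiBAC.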
On to `O=C(Cc1ccc(F)cc1)Nc1nc2ccc(F)cn2c1-c1ccc(OC(F)(F)F)cc1` [Compound 154, N-(6-fluoro-3-(4-(trifluoromethoxy)phenyl)imidazo[1,2-a]pyridin-2-yl)-2-(4-fluorophenyl)acetamide], for which the EC50 is < 500 nM.
For the compound `O=C(Cc1ccccc1)Nc1nc2ccc(F)cn2c1-c1cccc(Cl)c1` [Compound 155, N-(3-(3-chlorophenyl)-6-fluoroimidazo[1,2-a]pyridin-2-yl)-2-phenylacetamide], the half-maximal effective concentration (EC50) is < 500 nM.
`O=C(CC1CCCC1)Nc1nc2ccc(F)cn2c1-c1ccc(C(F)(F)F)cc1` [Compound 156, 2-cyclopentyl-N-(6-fluoro-3-(4-(trifluoromethyl)phenyl)imidazo[1,2-a]pyridin-2-yl)acetamide]: the half-maximal effective concentration (EC50) was < 500 nM.
Consider `O=C(CC1CCCCC1)Nc1nc2ccc(F)cn2c1-c1ccc(C(F)(F)F)cc1` [Compound 157, 2-cyclohexyl-N-(6-fluoro-3-(4-(trifluoromethyl)phenyl)imidazo[1,2-a]pyridin-2-yl)acetamide], for which the EC50 is < 500 nM.
For the compound `CC(C)(C)CC(=O)Nc1nc2ccc(F)cn2c1-c1ccccc1Cl` [Compound 158, N-(3-(2-chlorophenyl)-6-fluoroimidazo[1,2-a]pyridin-2-yl)-3,3-dimethylbutanamide], the EC50 lay within 500 to 3000 nM.
With `CC(C)(C)CC(=O)Nc1nc2ccc(C#N)cn2c1-c1ccc(F)cc1` [Compound 159, N-(6-cyano-3-(4-fluorophenyl)imidazo[1,2-a]pyridin-2-yl)-3,3-dimethylbutanamide], the EC50 is 500 to 3000 nM.
The result for `N#Cc1ccc2nc(NC(=O)Cc3ccccc3)c(-c3ccc(F)cc3)n2c1` [Compound 160, N-(6-cyano-3-(4-fluorophenyl)imidazo[1,2-a]pyridin-2-yl)-2-phenylacetamide] reads 500 to 3000 nM; that for `O=C(Nc1nc2ccc(F)cn2c1-c1ccc(C(F)(F)F)cc1)OCc1ccccc1` [Compound 161, benzyl 6-fluoro-3-(4-(trifluoromethyl)phenyl)imidazo[1,2-a]pyridin-2-ylcarbamate], 3000 to 10000 nM.
Turning to `CC(C)C(C)C(=O)Nc1nc2ccc(F)cn2c1-c1ccc(F)cc1` (stereo not drawn) [Compound 162, N-(6-fluoro-3(4-fluorophenyl)imidazo[1,2-a]pyridin-2-yl)-2,3-dimethylbutanamide], the 50% effective concentration (EC50) lay in the range of 500 to 3000 nM.
`CC(C)(C)CC(=O)Nc1nc2ccc(F)cn2c1-c1cccc(C(F)(F)F)c1` [Compound 163, N-(6-fluoro-3-(3-(trifluoromethyl)phenyl)imidazo[1,2-a]pyridin-2-yl)-3,3-dimethylbutanamide]: the EC50 is < 500 nM.
As for `O=C(Cc1ccc(F)cc1)Nc1nc2ccc(F)cn2c1-c1cccc(C(F)(F)F)c1` [Compound 164, N-(6-fluoro-3-(3-(trifluoromethyl)phenyl)imidazo[1,2-a]pyridin-2-yl)-2-(4-fluorophenyl)acetamide], the EC50 was < 500 nM.
With `O=C(Cc1ccccc1)Nc1nc2ccc(F)cn2c1-c1cccc(C(F)(F)F)c1` [Compound 165, N-(6-fluoro-3-(3-(trifluoromethyl)phenyl)imidazo[1,2-a]pyridin-2-yl)-2-phenylacetamide], the EC50 is < 500 nM.
On to `Cc1ccc2nc(NC(=O)Cc3ccccc3)c(-c3ccc(F)cc3)n2c1` [Compound 166, N-(3-(4-fluorophenyl)-6-methylimidazo[1,2-a]pyridin-2-yl)-2-phenylacetamide], for which the 50% effective concentration (EC50) is < 500 nM.
With `Cc1ccc2nc(NC(=O)CC(C)(C)C)c(-c3ccc(F)cc3)n2c1` [Compound 167, N-(3-(4-fluorophenyl)-6-methylimidazo[1,2-a]pyridin-2-yl)-3,3-dimethylbutanamide], the concentration for a half-maximal effect (EC50) is < 500 nM.
As to `Cc1ccn2c(-c3ccc(F)cc3)c(NC(=O)Cc3ccccc3)nc2c1` [Compound 168, N-(3-(4-fluorophenyl)-7-methylimidazo[1,2-a]pyridin-2-yl)-2-phenylacetamide], the EC50 was < 500 nM.
Take `Cc1ccn2c(-c3ccc(F)cc3)c(NC(=O)CC(C)(C)C)nc2c1` [Compound 169, N-(3-(4-fluorophenyl)-7-methylimidazo[1,2-a]pyridin-2-yl)-3,3-dimethylbutanamide]: the EC50 was < 500 nM.
`O=C(CC1CCCC1)Nc1nc2ccc(F)cn2c1-c1ccc(OC(F)(F)F)cc1` [Compound 170, 2-cyclopentyl-N-(6-fluoro-3-(4-(trifluoromethoxy)phenyl)imidazo[1,2-a]pyridin-2-yl)acetamide]: the EC50 was < 500 nM.
For the compound `O=C(CC1CC1)Nc1nc2ccc(F)cn2c1-c1ccc(OC(F)(F)F)cc1` [Compound 171, 2-cyclopropyl-N-(6-fluoro-3-(4-(trifluoromethoxy)phenyl)imidazo[1,2-a]pyridin-2-yl)acetamide], the EC50 is 500 to 3000 nM.
Turning to `O=C(CCC1CC1)Nc1nc2ccc(F)cn2c1-c1ccc(OC(F)(F)F)cc1` [Compound 172, 3-cyclopropyl-N-(6-fluoro-3-(4-(trifluoromethoxy)phenyl)imidazo[1,2-a]pyridin-2-yl)propanamide], the EC50 fell in the range of 500 to 3000 nM.
With `O=C(CCC(F)(F)F)Nc1nc2ccc(F)cn2c1-c1ccc(OC(F)(F)F)cc1` [Compound 173, 4,4,4-trifluoro-N-(6-fluoro-3-(4-(trifluoromethoxy)phenyl)imidazo[1,2-a]pyridin-2-yl)butanamide] the figure was 500 to 3000 nM; with `O=C(CCCC(F)(F)F)Nc1nc2ccc(F)cn2c1-c1ccc(OC(F)(F)F)cc1` [Compound 174, 5,5,5-trifluoro-N-(6-fluoro-3-(4-(trifluoromethoxy)phenyl)imidazo[1,2-a]pyridin-2-yl)pentanamide], < 500 nM; with `CC(C)(C)CC(=O)Nc1nc2ccc(F)cn2c1-c1ccc(C(C)(C)C#N)cc1` [Compound 175, N-(3-(4-(2-cyanopropan-2-yl)phenyl)-6-fluoroimidazo[1,2-a]pyridin-2-yl)-3,3-dimethylbutanamide], 500 to 3000 nM.
The result for `CC(C)(C)CC(=O)Nc1nc2ccc(F)cn2c1-c1cccc(C(C)(C)C#N)c1` [Compound 176, N-(3-(3-(2-cyanopropan-2-yl)phenyl)-6-fluoroimidazo[1,2-a]pyridin-2-yl)-3,3-dimethylbutanamide] reads 500 to 3000 nM; that for `CC(C)(C)CC(=O)Nc1nc2ccc(F)cn2c1-c1ccc(C#N)cc1` [Compound 177, N-(3-(4-cyanophenyl)-6-fluoroimidazo[1,2-a]pyridin-2-yl)-3,3-dimethylbutanamide], 500 to 3000 nM; that for `CC(C)(C)CC(=O)Nc1nc2ccc(C(F)(F)F)cn2c1-c1ccc(OC(F)(F)F)cc1` [Compound 178, 3,3-dimethyl-N-(3-(4-(trifluoromethoxy)phenyl)-6-(trifluoromethyl)imidazo[1,2-a]pyridin-2-yl)butanamide], < 500 nM.
Take `CC1(CC(=O)Nc2nc3ccc(F)cn3c2-c2ccc(F)cc2)CCCC1` [Compound 179, N-(6-fluoro-3-(4-fluorophenyl)imidazo[1,2-a]pyridin-2-yl)-2-(1-methylcyclopentyl)acetamide]: the EC50 was < 500 nM.
With `CC(C)(C)C(O)C(=O)Nc1nc2ccc(F)cn2c1-c1ccc(C(F)(F)F)cc1` (stereo not drawn) [Compound 181, N-(6-fluoro-3-(4-(trifluoromethyl)phenyl)imidazo[1,2-a]pyridin-2-yl)-2-hydroxy-3,3-dimethylbutanamide], the concentration giving a half-maximal response (EC50) was in the range of 500 to 3000 nM.

The EC50 is the concentration at which the effect is half-maximal.
